Results from patent publication US8084625B2, “Crosslinking agent, crosslinking method, method of controlling gene expression, and method of examining gene function” (Wako Pure Chemical Industries, Ltd., priority 2005, dated 2011).
Entries after “also recorded” stand apart in the source; their conditions may differ.

Experiments:
EGFP [1] = test: RNAi-effect inhibitory ability, EGFP/DsRed cotransfection in Hela cells (Example 5); type: cell-based; conditions: crosslinking agent solution 4 μM reacted with siRNA 8 hours, no UV irradiation, 48 hours culture
Protocol: (§1) (1) Reagents • Hela cells (American Type Culture Collection (ATCC, Rockville, Md.)) • DMEM culture medium (Dullbecco's modified Eagle culture medium, Nissui 2, manufactured by Nissui Pharmaceutical Co., Ltd.) • Opti-MEM culture medium (manufactured by GIBCO) • Trypsin solution (0.38 mg/ml EDTA aqueous solution containing 2.5 mg of trypsin, manufactured by GIBCO) • LipofectAMINE 2000 (manufactured by Invitrogen) • pEGFP-N1 vector solution
(§2) Hela cells (500 μl of the DMEM culture medium containing Hela cells and 10% of FBS) were spread on a 24-hole plate so as to obtain 3×10^4 cells/well. After 24 hours passed, the old culture medium was removed, and Hela cells were then washed with a PBS(−) solution. Subsequently, the PBS(−) solution was removed, and 500 μl of the DMEM culture medium containing 10% of FBS was added per one well. This was used as a transfection Hela cell plate.
As shown in the following Table 2, 0.2 μl of the crosslinking agent solution and 0.20 μl of the siRNA solution were mixed together, and the mixture thus obtained was still held for 8 hours under light shielding conditions. Subsequently, Nos. 2, 4, and 6 were irradiated with UV (350 nm) for 3 minutes using Rayonet Photochemical Reactor manufactured by Southern N. E. Ultraviolet Co. […]

EGFP [2] = test: Effectiveness versus bis-Bhc-CH3 and Bhc-diazo, EGFP/DsRed cotransfection in Hela cells (Example 7); type: cell-based
Protocol: As shown in the following Table 5, 0.2 μl of the crosslinking agent solution and 0.20 μl of the siRNA solution were mixed together, and the mixture thus obtained was still held for 8 hours under light shielding conditions. Subsequently, Nos. 2, 4, and 6 were irradiated with UV (350 nm) for 3 minutes using Rayonet Photochemical Reactor manufactured by Southern N. E. Ultraviolet Co.

EGFP [3] = test: Study in cell: local UV irradiation of transfected Hela cells, EGFP/DsRed (Example 8); type: cell-based
Protocol: as §2, with “of” for “of the”, “DMEM” for “DMEM culture medium”, “5×10^3” for “3×10^4”, “were” for “were then”
(§3) To 9.2 μl of the Opti-MEM culture medium, 0.8 μl of LipofectAMINE 2000 was added, and the culture medium thus processed was still held for 10 minutes.
Next, the above culture medium and the transfecting sample obtained by the above ii) were mixed together, and this mixture was still held for 20 minutes.
(§4) The mixture thus obtained was added to the transfection Hela cell plate prepared by the above (2) and was then cultured at 37° C. for 6 hours using a CO2 incubator (Automatic CO2 Incubators 5400, manufactured by NAPCO).
(§5) After the culture was performed, the culture medium was removed, and Hela cells were washed with a PBS(−) solution. Subsequently, the PBS(−) solution was removed, and 500 μl of the Opti-MEM culture medium was added per one well. […]
In addition, the observation results of the fluorescence images of EGFP and DsRed obtained by using the compound 3 of the present invention are shown in FIG. 6.

EGFP [4] = test: Influence of light irradiation and compound on RNAi, control siRNA (targeting luciferase), EGFP/DsRed in Hela cells (Example 9); type: cell-based
Protocol: The expression level obtained by transfection of siRNA which reacted with the compound of the present invention was low as that obtained by transfection of only EGFP. In order to investigate this reason, it was confirmed whether the transfection efficiency was degraded by the compound of the present invention or by the transfection itself of siRNA.
As shown in the following Table 8, 0.2 μl of the crosslinking agent solution and 0.20 μl of the siRNA solution or 0.20 μl of the control siRNA solution were mixed together, and the mixture thus obtained was still held for 8 hours under light shielding conditions.
as §3
Next, the above culture medium and the transfecting sample obtained by the above ii) or the control sample were mixed together, and this mixture was still held for 20 minutes.
as §4, §5

EGFP [5] = conditions: compound 3 4 μM
Protocol: The crosslinking agent solution in an amount of 0.2 μl and the siRNA solution in an amount of 0.20 μl were mixed together, and the mixture thus formed was still held for 0, 1, 2, 4, 8, or 24 hours under light shielding conditions.
After the culture was performed, transmission images of cells, and fluorescent images of EGFP and DsRed were observed.
By using a Meta Morph Analysis software (manufactured by Meta Imaging Software), the total fluorescent areas of the respective EGFP and DsRed were measured, and the ratio of EGFP/DsRed was obtained.

Lamin B1 = test: Light irradiation control of endogenous gene, Western blotting of Lamin B1 protein in Hela cells (Example 10); type: cell-based
Protocol: as §1, with “Md.)” for “Md.))”, “siRNA” for “pEGFP-N1 vector”
as §2, with “of” for “of the”, “DMEM” for “DMEM culture medium”, “1×10^3” for “3×10^4”
Mixing between 4.6 μl of the crosslinking agent solution and 0.46 μl of the siRNA solution was performed, and the mixture thus obtained was still held for 8 hours under light shielding conditions.
After the culture was performed, by a Western blotting method, the amounts of a Lamin B1 protein of the individual samples were quantitatively measured. […]
In addition, from the results of the Western blotting, the amounts of the Lamin B1 protein of the samples were quantitatively measured. […]

[6] = Hela cells, regardless before and after UV irradiation, bis-Bhc-CH3 4 μM, Bhc-diazo 8 μM

[N-]=[N+]=Cc1cc(=O)oc2cc(OC(=O)CCCC(=O)OCCOC(=O)CCCC(=O)Oc3cc4oc(=O)cc(C=[N+]=[N-])c4cc3Br)c(Br)cc12 [compound 2 of the present invention, Glutaric acid (6-bromo-4-diazomethyl-2-oxo-2H-chromen)-7-yl 2-[4-(6-bromo-4-diazomethyl-2-oxo-2H-chromen-7-yloxycarbonyl)butyryloxy]ethyl ester]
inhibition of the RNAi effect of siRNA (relative EGFP expression level) (EGFP [1]): superior effect of inhibiting the RNAi effect

[N-]=[N+]=Cc1cc(=O)oc2cc(O)c(Br)cc12 [Bhc-diazo, 6-bromo-7-hydroxy-4-methyldiazocumarine]
binding to / crosslinking of siRNA (EGFP [2]): could not crosslink two chains of siRNA | inhibition of the siRNA effect (relative EGFP expression level) (EGFP [2]; [6]): the siRNA effect could be hardlyinhibited

CC(C)(CC(=O)OCCOC(=O)CC(C)(C)CC(=O)Oc1cc2oc(=O)cc(C=[N+]=[N-])c2cc1Br)CC(=O)Oc1cc2oc(=O)cc(C=[N+]=[N-])c2cc1Br [compound 3 of the present invention, 3,3-dimethylglutaric acid (6-bromo-4-diazomethyl-2-oxo-2H-chromen)-7-yl 2-[4-(6-bromo-4-diazomethyl-2-oxo-2H-chromen-7-yloxycarbonyl)-3,3-dimethylbutyryloxy]ethyl ester]
inhibition of the siRNA effect (relative EGFP expression level) (EGFP [2]; Hela cells, 4 μM, UV irradiation not performed): could inhibit the siRNA effect | effect of UV irradiation on the inhibition of the siRNA effect (EGFP [2]; Hela cells, UV (350 nm) for 3 minutes): the inhibition was broken down by UV irradiation | RNAi effect of siRNA at a portion not irradiated with UV (EGFP [3]; Hela cells transfected with siRNA crosslinked by compound 3): the RNAi effect of siRNA was inhibited | RNAi effect of siRNA at a portion irradiated with UV (EGFP [3]; Hela cells, UV (335 to 385 nm) for 1 second at the center of the well, 42 hours culture): the RNAi effect of siRNA was restored | EGFP expression rate with control siRNA crosslinked by the compound versus control siRNA only (EGFP [4]): approximately equivalent to each other | crosslinking of siRNA when the reaction time is short (EGFP [5]; reaction time short (0, 1, 2, 4 hours tested)): could not be sufficiently crosslinked | reaction time at which the reaction between crosslinking agent and siRNA reached a plateau (EGFP [5]; reaction times 0-24 hours, no significant difference between 8 and 24 hours): approximately 8 hours | inhibition of the RNAi effect of siRNA (relative EGFP expression level) (EGFP [1]): superior effect of inhibiting the RNAi effect; also recorded: most superior effect | restoration of the inhibited RNAi effect on Lamin B1 expression by UV irradiation (Lamin B1; UV irradiation as in Example 8): could be restored | inhibition of the RNAi effect of siRNA on Lamin B1 expression (Lamin B1; compound 3 bound to siRNA, no UV): the RNAi effect of siRNA could be inhibited

Cc1cc(=O)oc2cc(OC(=O)CC(C)(C)CC(=O)OCCOC(=O)CC(C)(C)CC(=O)Oc3cc4oc(=O)cc(C)c4cc3Br)c(Br)cc12 [bis-Bhc-CH3, 3,3-dimethylglutaric acid (6-bromo-4-methyl-2-oxo-2H-chromen)-7-yl 2-[4-(6-bromo-4-methyl-2-oxo-2H-chromen-7-yloxycarbonyl)-3,3-dimethylbutyryloxy]ethyl ester]
binding to / crosslinking of siRNA (EGFP [2]): could not be bound to siRNA | inhibition of the siRNA effect (relative EGFP expression level) (EGFP [2]; [6]): the siRNA effect could be hardlyinhibited
